What all share (assay type): in vivo
Experiment [1] deals with cucumber anthracnose fungus (Colletotrichum lagenarium). In words: Test Example 9 and Comparative Test Example: cucumber anthracnose control, foliar spray. As to conditions: 200 ppm spray on cucumber (SAGAMI HANJIRO); inoculated one day after spraying.
The test system of experiment [2] is wheat rust fungus (Puccinia recondita). The experiment in a line: Test Example 2: wheat rust control, foliar spray. As to conditions: 500 ppm spray on wheat (SHIROGANE).
For experiment [3], the system named is cucumber target leaf spot fungus (Corynespora cassiicola). In words: Test Example 10: cucumber target leaf spot control, foliar spray. As to conditions: 200 ppm spray on cucumber (SAGAMI HANJIRO).

Structures are written as SMILES.

As to `COC(=O)Oc1ccccc1COc1ccc(C)cc1C` [2-[(2,4-dimethylphenoxy)methyl]phenyl=methyl=carbonate], the “area of lesion on the treated plant relative to that on an untreated plant” value in experiment [1] is not below 70%.
As to `CNC(=O)Oc1c(C)cccc1COc1ccc(-c2nn(C)c(Cl)c2C)cc1C` [present compound 6], the “area of lesion on the treated plant relative to that on an untreated plant” value in experiment [2] was not above 30%.
`CNC(=O)Oc1cccc(C)c1COc1ccc(-c2nn(C)c(Cl)c2C)cc1C` [present compound 7]: the “area of lesion on the treated plant relative to that on an untreated plant” value in experiment [3] is listed as not above 30%.

The values above are taken from patent US9573904B2, “Aromatic compound and use thereof” (Sumitomo Chemical Company, Limited, priority 2013, dated 2017).
